Laboratory results published in patent US20100035941A1, “METHODS FOR INCREASING BLOOD FLOW AND/OR PROMOTING TISSUE REGENERATION” (priority 2006, published 2010).
Several values for one entry are separate records, joined by “and”; a condition that tells them apart may be missing. Equal entries are not always repeated. Where two headings read alike, the source gives them in different places.

Key:
[1] = tested on: nucleated cells per ml of blood; settings: average of 5 donors, s.c. 80 μg/kg
Description: Five healthy human volunteers having initial white blood cell counts of 4,500-7,500 cells/mm^3 were used in the study. […] Blood samples were obtained via catheter prior to the dose, and at various times up to 24 hours after dosing.
All progenitor cell results are based on the scoring of 3 culture plates per assay per point.

[2] = tested on: progenitors in DNA synthesis (S) phase of the cell cycle; settings: for BFU-E Cycling Status of Progenitors / CFU-GEMM Cycling Status of Progenitors / CFU-GM Cycling Status of Progenitors: % progenitors in S phase; for BFU-E Cycling Status of Progenitors / CFU-GEMM Cycling Status of Progenitors / CFU-GM Cycling Status of Progenitors / AGAR Culture CFU-GM Cycling Status of Progenitors: s.c. 80 μg/kg
Description: For the progenitor cell numbers and cycling status, the numbers of CFU-GM, BFU-E and CFU-GEMM in methylcellulose cultures by stimulation of the cells with 1 Unit (U)/ml recombinant human (rhu) erythropoietin, 100 U/ml rhu granulocyte-macrophage colony stimulating factor (GM-CSF), 100 U/ml rhu interleukin-3 (IL-3) and 50 ng/ml rhu steel factor (SLF=stem cell factor (SCF)). The CFU-GM were also evaluated in agar cultures stimulated with 100 U/ml rhu GM-CSF and 50 ng/ml rhu SLF. For both types of assays, colonies were scored after 14 day incubation in a humidified atmosphere with 5% CO2 and lowered (5%) O2 tension. Cell cycling status of progenitors was measured using a high specific activity tritiated thymidine kill technique as previously described (Broxmeyer, H. E., et al., Exp. Hematol. (1989) 17:455-459).

progenitor cells = settings: AMD3100 5 mg/Kg s.c. plus MIP-1α 5 μg I.V., 11 hours after rhu G-CSF or saline, 1 hour prior to assessing the blood
Description: Groups of mice were randomized to receive control diluent (saline) or G-CSF at a dose of 2.5 μg per mouse, twice a day, for two days via s.c. injection. […] One hour later, the mice were sacrificed and the number of progenitor cells per mL of blood were measured.

bone marrow stem cells = settings: rats; coronary ligation; injected within 4 to 6 hours, with or without rhG-CSF
Description: Adult rats are anesthetized and a thoracotomy is performed. The descending branch of the left coronary artery is ligated and not reperfused. […] Control rats are not treated with the reagents. The animals are monitored at one-week intervals by echocardiography and MRI. The experiment is terminated at 2, 6 to 12 weeks post-surgery. On the day of sacrifice, the hemodynamic functions are analyzed for left ventricle-end diastolic pressure, left ventricle-developed pressure and the rate of rise and fall of left ventricle pressure. The heart is then arrested in diastole and perfused via the abdominal aorta to flush residual blood from the vascular network of the myocardium. This is followed by perfusion of the heart with 10% formalin. Several slices are made through the fixed heart and these are embedded in paraffin and sections. The sections are stained and analyzed by light microscopy to determine the size of the infarct in the treated and control animals. Tissue sections from hearts taken at 2 weeks after surgery are stained with antibodies specific for immature, developing myocyte and blood vessel proteins and analyzed by confocal microscopy. The immunohistochemical analysis involves the identification of transcription factors and surface markers expressed in early stages of myocyte development.

[3] = individual donors P1-P5, T = 1 hour
[4] = individual donors P1-P5, T = 3 hours
[5] = individual donors P1-P5, T = 6 hours
[6] = individual donors P1-P5, T = 9 hours
[7] = individual donors P1-P5, T = 24 hours

## c1cc(CN2CCCNCCNCCCNCC2)ccc1CN1CCCNCCNCCCNCC1 [AMD3100, 1,1′-[1,4-phenylene-bis(methylene)]-bis-1,4,8,11-tetraazacyclotetradecane]
[1]; T = 1 hour
  Fold Change Compared to TIME = 0, nucleated cellularity PBL-LD, MEAN: 1.86
  Fold Change Compared to TIME = 0, nucleated cellularity PBL-US, MEAN: 1.69
  nucleated cellularity PBL-LD, % CHG: 86.2%
  nucleated cellularity PBL-US, % CHG: 68.6%
[1]; T = 3 hours
  Fold Change Compared to TIME = 0, nucleated cellularity PBL-LD, MEAN: 2.86
  Fold Change Compared to TIME = 0, nucleated cellularity PBL-US, MEAN: 2.80
  nucleated cellularity PBL-LD, % CHG: 185.6%
  nucleated cellularity PBL-US, % CHG: 180.2%
[1]; T = 6 hours
  Fold Change Compared to TIME = 0, nucleated cellularity PBL-LD, MEAN: 3.66
  Fold Change Compared to TIME = 0, nucleated cellularity PBL-US, MEAN: 3.26
  nucleated cellularity PBL-LD, % CHG: 266.3%
  nucleated cellularity PBL-US, % CHG: 225.8%
[1]; T = 9 hours
  Fold Change Compared to TIME = 0, nucleated cellularity PBL-LD, MEAN: 3.64
  Fold Change Compared to TIME = 0, nucleated cellularity PBL-US, MEAN: 3.09
  nucleated cellularity PBL-LD, % CHG: 264.3%
  nucleated cellularity PBL-US, % CHG: 209.4%
[1]; T = 24 hours
  Fold Change Compared to TIME = 0, nucleated cellularity PBL-LD, MEAN: 1.05
  Fold Change Compared to TIME = 0, nucleated cellularity PBL-US, MEAN: 1.07
  nucleated cellularity PBL-LD, % CHG: 4.6%
  nucleated cellularity PBL-US, % CHG: 7.0%
[2]; [3]
  BFU-E Cycling Status of Progenitors: 3% and 0% (4×)
  CFU-GEMM Cycling Status of Progenitors: 6% and 0% (4×)
  CFU-GM Cycling Status of Progenitors: 1% and 0% (4×)
  AGAR Culture CFU-GM Cycling Status of Progenitors: 3% and 0% (4×)
[2]; [4]
  CFU-GEMM Cycling Status of Progenitors: 0% (4×) and 7%
  AGAR Culture CFU-GM Cycling Status of Progenitors: 0% (4×) and 1%
[2]; [5]
  BFU-E Cycling Status of Progenitors: 0% (4×) and 1%
  CFU-GEMM Cycling Status of Progenitors: 0% (4×) and 8%
  CFU-GM Cycling Status of Progenitors: 0%
  AGAR Culture CFU-GM Cycling Status of Progenitors: 1% and 0% (2×) and 3% (2×)
[2]; [6]
  BFU-E Cycling Status of Progenitors: 0% (4×) and 11%
  CFU-GEMM Cycling Status of Progenitors: 4% and 0% (4×)
  CFU-GM Cycling Status of Progenitors: 2% and 0% (4×)
[2]; [7]
  BFU-E Cycling Status of Progenitors: 2% and 0% (3×) and 3%
  CFU-GEMM Cycling Status of Progenitors: 0%
  CFU-GM Cycling Status of Progenitors: 0% (3×) and 3% and 5%
[2]; individual donors P2-P5, T = 9 hours
  AGAR Culture CFU-GM Cycling Status of Progenitors: 0%
[2]; individual donors P2-P5, T = 24 hours
  AGAR Culture CFU-GM Cycling Status of Progenitors: 0%
[2]; prior to and 1, 3, 6, 9 and 24 hours after injection, human donors
  cycling state of progenitors: slow or non-cycling state
Progenitor cells
  mobilization of progenitor cells in combination with mu MIP-1α: additive to greater than additive
Bone marrow stem cells
  expected effect on ischemic myocardium: will lead to regeneration of the dead myocardium
